Test results from patent US10183011B2, “Anti-depression compounds” (Board of Regents of the University of Texas System, priority 2009, dated 2019).

Assays:
U2OS cells = test: Calcium ionophore A23187-induced loss of mitochondrial membrane potential (TMRM dye release); format: cell-based; conditions: TMRM dye
Excerpt: FIG. 22A, FIG. 22B, FIG. 22C, FIG. 22D, FIG. 22E and FIG. 22F: Example 45 Compound Preserves Mitochondrial Membrane Potential in Parallel to Proneurogenic Activity U2OS cells were loaded with tetramethylrhodamine methyl ester (TMRM) dye and then exposed to the calcium ionophore A23187 either in the presence or absence of test compounds. Example 45 Compound (FIG. 22A) preserved mitochondrial membrane potential following exposure to the calcium ionophore A23187 in a dose-dependent manner. The protective effect of P7C3 was enantiomeric specific. […] Each compound was evaluated in triplicate with similar results.
Extensive evidence pioneered by the laboratory of Xiaodong Wang has shown that an intrinsic pathway leading to programmed cell death emanates from mitochondria (Liu et al., Cell 1996, 86, 147-157; Yang et al., Science 1997, 275, 1129-1132). With the help of the Wang lab, assays were established to test whether Example 45 Compound might protect mitochondria from calcium-induced dissolution (Distelmaier et al., Cytometry A 2008, 73, 129-138). Tetramethylrhodamine methyl ester (TMRM) is a cell-permeant, cationic red-orange fluorescent dye that is readily sequestered by active mitochondria. When loaded with TMRM dye, vehicle-only treated cells released the dye within 15 minutes of exposure to the calcium ionophore A23187. By contrast, dye release was prevented in cells exposed to as little as […] of Example 45 Compound (FIG. 18A).
Since P7C3 ameliorates the death of newborn neurons in the dentate gyrus in living mice, it is possible that its function might relate to mitochondrial integrity. Assays were established to test whether P7C3 might protect cultured U2OS cells from calcium-induced mitochondrial dissolution (Distelmaier et al., Cytometry A 2008, 73, 129-138). Tetramethylrhodamine methylester (TMRM) dye is sequestered by active mitochondria, and, when loaded with TMRM, vehicle-treated cells released the dye within 15 rain of exposure to the calcium ionophor A23 187.

[1] = system: neural precursor cells in the subgranular zone of the dentate gyrus; test: In vivo pro-neurogenic efficacy/neuroprotection assay: intracerebroventricular infusion, BrdU incorporation in the dentate gyrus; design: species or system mouse (C57/Bl6); conditions: direct administration into the brain via Alzet minipumps for one week, 10 μM unless stated
Experimental: Compounds were evaluated for pro-neurogenic efficacy/neuroprotection in our standard in vivo assay at 10 μM concentration in four 12 week old adult male C57/Bl6 mice.
In an effort to identify compounds that might stimulate the birth of new neurons, or protect newborn neurons from cell death, a library of 1,000 compounds was screened using an in vivo assay. In the initial screen, compounds were randomly pooled into groups often and administered intracerebroventricularly at a constant rate over seven days into the left lateral ventricle of living mice via Alzet osmotic mini-pumps. Compounds were administered at a concentration of 10 μM for each molecule, making a total solute concentration of 100 μM. After seven days of infusion at a constant rate of 0.5 μL/hour, a total of 84 μL of volume will have left the pump (0.00084 μMoles) and entered the cerebrospinal fluid. The average volume of a brain from a 12 week old male, C57/B6 mouse in our study is 500 mm^3. […] Under these conditions, at the end of one week of infusion each compound would be present at 1.7 μMolar concentration. Since the actual amount of chemical compound in the brain is likely to be only a fraction of this predicted level, it is reasonable to estimate that compounds were administered at mid to low-nanomolar concentrations.
During compound infusion, animals were intraperitoneally (IP) injected daily with the thymidine analog, bromodeoxyuridine (BrdU), as a means of scoring the birth and survival of proliferating neural precursor cells in the hippocampus. Because both social interaction and voluntary exercise are known to stimulate hippocampal neurogenesis, mice were housed individually without access to running wheels throughout the screening period. Following the week-long period of compound administration, animals were perfused and sacrificed. Dissected brain tissue was fixed, embedded, sectioned, stained with antibodies to BrdU, and evaluated by light microcopy as a means of quantifying neurogenesis and survival of newborn neural precursor cells localized to the subgranular layer of the dentate gyrus on the brain hemisphere contralateral to the side of mini-pump cannulation. Every fifth section throughout the entire rostral-caudal extent of the hippocampus was analyzed, and the total number of BrdU+ cells was normalized against the measured volume of the dentate gyrus. Because both increased proliferation and survival of newborn neurons are important screening parameters, the screen was conducted over seven days in order to cast a wide net to detect molecules that might augment either process. […] Intracranial infusions of either fibroblast growth factor 2 (FGF-2) or artificial cerebral spinal fluid (aCSF) vehicle via the same, week-long protocol were employed as positive and negative controls. There was no difference in the number of BrdU-labeled cells in the dentate gyrus between mice subjected to surgical pump implantation and infusion with vehicle, and mice having had no surgery (FIG. 2). This confirmed the validity of the in vivo approach to assess the ability of intracerebroventricularly infused compounds to enhance hippocampal neurogenesis in the contralateral hemisphere.
In order to further study Example 45 Compound, an in vivo structure activity relationship (SAR) study was conducted using 37 chemical derivatives of the compound for pro-neurogenic activity via direct administration into the brain of adult mice via Alzet minipumps. Compounds were administered for one week at 10 uM into 4 mice per compound, along with daily IP injections of BrdU. Following compound administration, animals were perfused, sacrificed and subjected to sectioning, staining and light microscopy in order to monitor hippocampal neurogenesis localized to the subgranular layer of the dentate gyrus. Roughly 10% of the variant compounds retained pro-neurogenic activity indistinguishable from the parent compound. […]

[2] = system: cultured primary cortical neurons; test: Mitochondrial membrane potential (TMRM) after A23187 in cultured primary cortical neurons; format: cell-based; conditions: rat E14 cortical neurons
Excerpt: (§1) FIG. 23: Example 45 Compound Preserves Mitochondrial Membrane Potential in Cultured Primary Cortical Neurons. Cortical neurons cultures from rats on embryonic day 14 were loaded with tetramethylrhodamine methyl ester (TMRM) dye after 6 days of maturation. […] The remaining panels are from cells that were exposed to the calcium ionophore A23187 at time zero. With vehicle-alone, cortical neuron mitochondrial membrane potential was rapidly lost after exposure to the ionophore. […] Results shown are representative of 10 fields analyzed in each of 2 experimental runs for all conditions.
as §1, with “It was also examined whether” for “FIG. 23:”, “preserves mitochondrial membrane potential” for “Preserves Mitochondrial Membrane Potential”, “cultured primary cortical neurons (FIG. 23).” for “Cultured Primary Cortical Neurons.”

[3] = system: hippocampal neurogenesis in the DG; test: Comparison of P7C3 compounds and antidepressant drugs: DG BrdU labeling after i.c.v. infusion; format: in vivo, mouse; conditions: 10 μM i.c.v. for 7 days
Excerpt: The neuroprotective efficacies of both P7C3 and P7C3-A20 were next compared to currently marketed antidepressant medications, using screening conditions identical to those by which P7C3 was originally discovered. This experiment was based on the antidepressant actions of P7C3 and P7C3-A20 characterized here, and the dependence on hippocampal neurogenesis for behavioral efficacy of some marketed antidepressant medications in mice.
Proneurogenic efficacies in the DG of P7C3 and P7C3A20 were compared to those of vehicle (artificial cerebrospinal fluid) and several marketed antidepressant compounds (Sigma-Aldrich, St. Louis, Mo.) according to established methods. In brief, mice were housed individually in cages without running wheels or any form of environmental enrichment, in order to create an environment predicted to have as low of a baseline level of hippocampal neurogenesis as possible. Compounds (10 μM, i.c.v.) were administered for 7 days via subcutaneously implanted Alzet osmotic minipumps connected to a cannula directed into the left lateral ventricle, with implantation day designated as day 0. Starting on day 1, mice also received daily injections of BrdU (50 mg/kg, i.p.) at 9 am daily, for 6 days. Twenty four hours after the sixth BrdU injection, mice were transcardially perfused as described above.

Solubility = format: physicochemical
[4] = system: neural precursor cells in the subgranular zone of the dentate gyrus; conditions: dosed intracranially as a 10 micromolar solution; MacMillan et al., J Am. Chem. Soc. 2011; cited from earlier work

Row | Structure (SMILES) | preservation of mitochondrial membrane potential (U2OS cells) | increase of DG neurogenesis (BrdU labeling) over vehicle [3] | further results
1 | COc1cccc(NCC(O)Cn2c3ccc(Br)cc3c3cc(Br)ccc32)c1 (single isomer, unassigned) [Example 1b, 1-(3,6-Dibromo-9H-carbazol-9-yl)-3-(3-methoxyphenylamino)-propan-2-ol] | Preservation of mitochondrial membrane potential in this assay was observed |  | 
2 | COc1cccc(NCC(O)Cn2c3ccc(Br)cc3c3cc(Br)ccc32)c1 (single isomer, unassigned; (+)) [(+) enantiomer of Example 62 Compound, 1-(3,6-Dibromo-9H-carbazol-9-yl)-3-(3-methoxyphenylamino)-propan-2-ol] | observed only with the (+) enantiomer |  | pro-neurogenic activity in the in vivo hippocampal neurogenesis assay [1]: fully retained; pro-neurogenic activity in the in vivo hippocampal neurogenesis assay ([1]; listed as (+)-enantiomer of Example 62 Compound): retained potent pro-neurogenic activity
3 | Cc1cc(C)n(CC(O)Cn2c3ccc(Br)cc3c3cc(Br)ccc32)n1 (stereo not shown) [Example 33, 1-(3,6-dibromo-9H-carbazol-9-yl)-3-(3,5-dimethyl-1H-pyrazol-1-yl)propan-2-ol] | displayed less protective effect |  | preservation of mitochondrial membrane potential [2]: less effective in preserving mitochondrial membrane potential at any dose tested
4 | CN[C@H]1CC[C@@H](c2ccc(Cl)c(Cl)c2)c2ccccc21 [sertraline] |  | did not affect the magnitude of neurogenesis | 
5 | CNCCC(Oc1ccc(C(F)(F)F)cc1)c1ccccc1 (stereo not shown) [fluoxetine] |  | did not affect the magnitude of neurogenesis | 
6 | CN(C)CCCN1c2ccccc2CCc2ccccc21 [imipramine] |  | did not affect the magnitude of neurogenesis | 
7 | CN(C)CCCN1c2ccccc2CCc2ccc(Cl)cc21 [clomipramine] |  | ~75% | 
8 | OC(CNc1ccccc1)Cn1c2ccccc2c2ccccc21 (stereo not shown) [Example 76, 1-(9H-carbazol-9-yl)-3-(phenylamino)propan-2-ol] |  |  | pro-neurogenic activity in the in vivo hippocampal neurogenesis assay [1]: found to be active; solubility (Solubility): low solubility; pro-neurogenic activity of a commercial sample in the neurogenesis assay [4]: indistinguishable from vehicle
9 | CN1CCN2c3ncccc3Cc3ccccc3C2C1 (stereo not shown) [mirtazapine] |  | did not affect the magnitude of neurogenesis | 
10 | N[C@@H]1C[C@H]1c1ccccc1 (racemic) [tranylcypromine] |  | did not affect the magnitude of neurogenesis | 
11 | OC(CCNc1ccccc1)Cn1c2ccc(Br)cc2c2cc(Br)ccc21 (stereo not shown) [Example 21, 1-(3,6-dibromo-9H-carbazol-9-yl)-4-(phenylamino)butan-2-ol] | displayed less protective effect |  | 
